In patent US20230091848A1, “DISEASE DETECTION AND TREATMENT BASED ON PHENYLACETYL GLUTAMINE LEVELS” (The Cleveland Clinic Foundation, priority 2020, published 2023):
Numbered stars: 1 amine (or outer) side, 2 acyl side, 3 side chain; on linkers, the order of the positions; unused ones are H or OH. Bridge positions count the residues as written; N and C are the ends. Square brackets hold non-standard residues; d marks the D form. Peptide text beside a SMILES is read from it. X1 = CC(=O)NC(C(=O)OC(C(C)C)C(N[*:1])C(=O)[*:2])C(O)C(C)C; PhLac = O=C(O)[CH](O)Cc1ccccc1; NMeT = CN[CH](C(=O)O)[CH](C)O; NMeA = CN[CH](C)C(=O)O; NMeDha = C=C(NC)C(=O)O

How the values were obtained:
MEG01 cells [1] = assay: Dynamic mass redistribution (DMR) in MEG01 cells; format: cell-based, human
Procedure: (§1) Before proceeding for the experiments, cells were subjected to overnight incubation in reduced serum media opti-MEM. […] The cells were briefly centrifuged at room temperature at low speed (100 g for 10-15 sec) to allow settling down the cells at the bottom of the plate. After that, cells were allowed to temperature equilibrate for 1 h at room temperature prior to run DMR measurement. Firstly, basal DMR responses were graphed for around 15 min to obtain a baseline read that defines the zero level and also ensures the signal is stable. […] DMR response signal was recorded for 60-90 minutes post compound of interest addition.

HEL92.1.7 cells = assay: Dynamic mass redistribution (DMR) in HEL92.1.7 cells; format: cell-based, human
Procedure: as §1

MEG01 cells [2] = assay: cAMP assay in MEG01 cells; format: cell-based, human
Procedure: Real-time (RT) PCR in MEG01 cells: Total RNA was isolated from MEG01 cells following TRIZOL RNA isolation protocol post 40 h of siRNA transfection. […] Real time (RT) PCR was carried out following TaqMan Gene Expression Assays protocol using RT primers and probes of ADRA2A (assay Id Hs01099503_s1), ADRA2B (assay Id Hs00265081 s1) and ADRB2 (assay Id Hs00240532_s1) from ThermoFisher Scientific. cAMP assay in MEG01, Platelets and HEK293 cells: Intracellular cAMP levels were measured using CatchPoint Cyclic-AMP Fluorescent Assay Kit from molecular devices (Cat. R8089). Briefly, MEG01 cells were washed with 1×HBSS buffer with HEPES (20 mM; pH 7.4) and re-suspended in stimulation buffer (1×HBSS, HEPES (20 mM); pH 7.4, IBMX (0.5 mM), Rolipram (0.1 mM) and BSA (0.1%)). The cells were further seeded into 96 well cell culture plates with a density of ˜100 k cells per well in 100 μL stimulation buffer. Similarly, human washed platelets re-suspended very gently in stimulation buffer and seeded into a 96-well cell culture plates with ˜4-6 million platelets per well in 100 μL stimulation buffer. Both the MEG01 cells and platelets were kept thereafter at 37° C. incubator for 10 min before addition of the inhibitors or test compounds. Following incubation with stimulation buffer, 10 μL (10× concentration) of modulators/inhibitors (when necessary) were added and kept for 15 min at 37° C. […] The test compounds were made in buffer T (1×HBSS, HEPES (20 mM); pH 7.4, IBMX (0.5 mM) and Rolipram (0.1 mM)). The reaction was stopped by adding 50 μL of lysis buffer (provided in the kit CatchPoint Cyclic-AMP Fluorescent Assay Kit Cat. R8089-Molecular Devices), further added with IBMX (0.5 mM) and Rolipram (0.1 mM)) and agitated for 10 min in a plate shaker to facilitate cell lysis. Lysed cells are immediately proceeded to cAMP assay. For the quantification of cAMP, the lysed sample (40 μL), buffer control and cAMP calibrators were added in appropriate wells of a 96-well clear bottom, black wall cAMP assay plates (provided in the kit). Thereafter, reconstituted rabbit anti-cAMP antibody (40 μL) was added to all the wells and mix for 5 min on a plate shaker to ensure mixing. In the next step, reconstituted HRP-cAMP conjugate (40 μL) was added to every well, mixed properly and kept at room temperature for 2 h. The plate contents were aspirated thereafter and washed with wash buffer (300 μL (provided in the kit)) 4 times. Spotlight red substrate (provided in the kit) was added to each well minimizing the time between starting and finishing in dark. The plate was covered with aluminum foil and left at room temperature for at least 10 min before reading fluorescence intensity in a FlexStation 3 Multi-Mode Microplate Reader-Molecular devices. […] For cAMP assay in adherent cell lines, parental HEK293, and β2-HEK293 (stable) cells were seeded into 96-well cell culture microplates with approximately 50 k cells per well in DMEM (100 μL) media supplemented with FBS (10%), penicillin (100 U/mL) and streptomycin (100 μg/mL) in a humidified atmosphere at 37° C. in 5% CO2. Cells were grown for 24 h before proceeding for cAMP experiment following similar method as described for MEG01 cells. Intracellular Ca^2+ measurement: Intracellular Ca^2+ in MEG01, HEL92.1.7, parental HEK293, β2-HEK293 (stable) cells, empty vector (EV) transfected HEK293 cells, ADRA2A transfected HEK293 cells and in α2B-HEK293 stable cells was measured using FLIPR Calcium 5 Assay Kit-Molecular devices (Cat. R8186). […]

washed human platelets = assay: cAMP assay in washed human platelets; format: cell-based
Procedure: Real-time (RT) PCR in MEG01 cells: Total RNA was isolated from MEG01 cells following TRIZOL RNA isolation protocol post 40 h of siRNA transfection. […] Real time (RT) PCR was carried out following TaqMan Gene Expression Assays protocol using RT primers and probes of ADRA2A (assay Id Hs01099503_s1), ADRA2B (assay Id Hs00265081 s1) and ADRB2 (assay Id Hs00240532_s1) from ThermoFisher Scientific. cAMP assay in MEG01, Platelets and HEK293 cells: Intracellular cAMP levels were measured using CatchPoint Cyclic-AMP Fluorescent Assay Kit from molecular devices (Cat. R8089). Briefly, MEG01 cells were washed with 1×HBSS buffer with HEPES (20 mM; pH 7.4) and re-suspended in stimulation buffer (1×HBSS, HEPES (20 mM); pH 7.4, IBMX (0.5 mM), Rolipram (0.1 mM) and BSA (0.1%)). The cells were further seeded into 96 well cell culture plates with a density of ˜100 k cells per well in 100 μL stimulation buffer. Similarly, human washed platelets re-suspended very gently in stimulation buffer and seeded into a 96-well cell culture plates with ˜4-6 million platelets per well in 100 μL stimulation buffer. Both the MEG01 cells and platelets were kept thereafter at 37° C. incubator for 10 min before addition of the inhibitors or test compounds. Following incubation with stimulation buffer, 10 μL (10× concentration) of modulators/inhibitors (when necessary) were added and kept for 15 min at 37° C. […] For the quantification of cAMP, the lysed sample (40 μL), buffer control and cAMP calibrators were added in appropriate wells of a 96-well clear bottom, black wall cAMP assay plates (provided in the kit). […] The plate was covered with aluminum foil and left at room temperature for at least 10 min before reading fluorescence intensity in a FlexStation 3 Multi-Mode Microplate Reader-Molecular devices. […] Intracellular Ca^2+ measurement: Intracellular Ca^2+ in MEG01, HEL92.1.7, parental HEK293, β2-HEK293 (stable) cells, empty vector (EV) transfected HEK293 cells, ADRA2A transfected HEK293 cells and in α2B-HEK293 stable cells was measured using FLIPR Calcium 5 Assay Kit-Molecular devices (Cat. R8186). […]

[3] = Metabolism of phenylacetic acid after i.p. injection; format: in vivo; conditions: intraperitoneal (i.p.) injection in mice

For `NC[C@H](O)c1ccc(O)c(O)c1` [norepinephrine], the “DMR dose response curves” value (MEG01 cells [1]; increasing concentrations) was “saturable and specific DMR dose response curves” and the DMR dose-response signal (HEL92.1.7 cells; increasing concentrations) was “like norepinephrine”.
With `Cc1ccc(OCC(O)C(C)NC(C)C)c2c1CCC2` (centres unmarked) [ICI118,551] the “DMR response to ATP after ADR inhibitors” value (MEG01 cells [1]; ATP 50 μM, inhibitor 10 μM) was “remained unchanged”, the “DMR response of isoproterenol (ISO) after ADR inhibitors” value (MEG01 cells [1]; ISO 10 μM, inhibitor 10 μM) was “diminished” and the “PAGln-induced DMR response after ADR inhibitors” value (MEG01 cells [1]; PAGln 100 μM, inhibitor 10 μM, 30 min) was “substantially reduced”. The “intracellular cAMP production after ISO treatment, with ADR inhibitors” value (MEG01 cells [2]) was “reduced”, the “PAGln induced intracellular cAMP production after ADR inhibitors” value (MEG01 cells [2]; PAGln 100 μM, 5 min exposure, inhibitor 10 μM) was “inhibited PAGln (5 min exposure) induced intracellular cAMP production” and the “intracellular cAMP production after ISO treatment, with ADR inhibitors” value (washed human platelets) was “reduced”. For the same molecule, the “PAGln induced intracellular cAMP production after ADR inhibitors” value (washed human platelets; PAGln 5 min exposure) was “inhibited PAGln (5 min exposure) induced intracellular cAMP production”.
For `C=C1C(=O)NC(C)C(=O)N(C)C(C)C(=O)NC(C(OC(=O)C(NC(C)=O)C(O)C(C)C)C(C)C)C(=O)N(C)C(C(C)OC)C(=O)OC(C)C(NC(C)=O)C(=O)OC(Cc2ccccc2)C(=O)N1C` (centres unmarked) [YM-254890] (Ac-T[PhLac][NMeDha]A[NMeA][X1][NMeT](Me); ester 1-C; configuration not given here), the “PAGln induced DMR response after G-protein modulators” value (HEL92.1.7 cells) was “significant reduction in PAGln induced DMR response”.
With `CN=c1nc(-c2ccccc2)n(-c2ccccc2)s1` [SCH-202676] the “PAGln-induced DMR response after G-protein modulators” value (MEG01 cells [1]; PAGln 100 μM, PTX 100 ng/mL, CTX 1 μg/mL, YM-254890 0.5 μM, SCH-202676 1 μM) was “significantly reduced”, the “PAGln-evoked cAMP production after GPCR modulators” value (MEG01 cells [2]; pretreatment with modulator) was “inhibited PAGln-evoked cAMP production” and the “PAGln-evoked cAMP production after GPCR modulators” value (washed human platelets; pretreatment with modulator) was “inhibited PAGln-evoked cAMP production”.
In the case of `O=C(O)Cc1ccccc1` [phenylacetic acid], the metabolic fate [3] is reported as “predominantly metabolized into PAGly”.
